Measurements taken from patent publication US9255096B1, “Substituted 1,2,3,4-tetrahydrobenzo[C][2,7] naphthyridines and derivatives thereof as kinase inhibitors” (Allergan, Inc., priority 2014, dated 2016).

What was measured:
[1] = target: T1, VEGFR2 (Homo sapiens (Human), UniProt P35968); assay: VEGFR2 Kinase Assay (enzyme); assay type: biochemical; conditions: purified cytoplasmic domain KDR protein, 2.7 μM ATP
Method: VEGFR2 Kinase Assay: Biochemical KDR kinase assays were performed in 96 well microtiter plates that were coated overnight with 75 μg/well of poly-Glu-[…]:1) in 10 mM Phosphate Buffered Saline (PBS), pH 7.4. The coated plates were washed with 2 mls per well PBS+0.05% Tween-20 (PBS-T), blocked by incubation with PBS containing 1% BSA, then washed with 2 mls per well PBS-T prior to starting the reaction. Reactions were carried out in 100 μL reaction volumes containing 2.7 μM ATP in kinase buffer (50 mM Hepes buffer pH 7.4, 20 mM MgCl2, 0.1 mM MnCl2 and 0.2 mM Na3VO4). Test compounds were reconstituted in 100% DMSO and added to the reaction to give a final DMSO concentration of 5%. Reactions were initiated by the addition 20 ul per well of kinase buffer containing 200-300 ng purified cytoplasmic domain KDR protein (BPS Bioscience, San Diego, Calif.). Following a 15 minute incubation at 30° C., the reactions were washed 2 mls per well PBS-T. 100 μl of a monoclonal anti-phosphotyrosine antibody-peroxidase conjugate diluted 1:10,000 in PBS-T was added to the wells for 30 minutes. Following a 2 mls per well wash with PBS-Tween-20, 100 μl of 0-Phenylenediamine Dihydrochloride in phosphate-citrate buffer, containing urea hydrogen peroxide, was added to the wells for 7-10 minutes as a colorimetric substrate for the peroxidase. The reaction was terminated by the addition of 100 μl of 2.5N H2SO4 to each well and read using a microplate ELISA reader set at 492 nm. IC50 values for compound inhibition were calculated directly from graphs of optical density (arbitrary units) versus compound concentration following subtraction of blank values.
Target sequence in this assay (P35968 786-1356): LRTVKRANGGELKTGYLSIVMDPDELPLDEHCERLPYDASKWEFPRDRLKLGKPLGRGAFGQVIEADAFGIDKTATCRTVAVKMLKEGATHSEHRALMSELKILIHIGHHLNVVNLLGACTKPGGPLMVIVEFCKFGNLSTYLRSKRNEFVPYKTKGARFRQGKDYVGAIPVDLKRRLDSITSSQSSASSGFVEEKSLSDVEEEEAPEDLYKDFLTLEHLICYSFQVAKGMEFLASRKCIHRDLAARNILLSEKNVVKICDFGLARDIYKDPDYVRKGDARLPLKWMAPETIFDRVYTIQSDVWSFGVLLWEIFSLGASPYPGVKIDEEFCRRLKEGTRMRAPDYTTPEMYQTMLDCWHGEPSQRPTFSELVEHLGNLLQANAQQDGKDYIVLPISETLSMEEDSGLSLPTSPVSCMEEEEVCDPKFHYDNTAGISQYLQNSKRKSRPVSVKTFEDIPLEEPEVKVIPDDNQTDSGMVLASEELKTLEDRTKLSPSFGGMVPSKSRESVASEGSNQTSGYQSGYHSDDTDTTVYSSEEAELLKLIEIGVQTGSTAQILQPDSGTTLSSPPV

[2] = target: T1, VEGFR2; assay: VEGFR2 Cellular Assay; assay type: cell-based
Target sequence in this assay (P35968 20-1356, species assumed): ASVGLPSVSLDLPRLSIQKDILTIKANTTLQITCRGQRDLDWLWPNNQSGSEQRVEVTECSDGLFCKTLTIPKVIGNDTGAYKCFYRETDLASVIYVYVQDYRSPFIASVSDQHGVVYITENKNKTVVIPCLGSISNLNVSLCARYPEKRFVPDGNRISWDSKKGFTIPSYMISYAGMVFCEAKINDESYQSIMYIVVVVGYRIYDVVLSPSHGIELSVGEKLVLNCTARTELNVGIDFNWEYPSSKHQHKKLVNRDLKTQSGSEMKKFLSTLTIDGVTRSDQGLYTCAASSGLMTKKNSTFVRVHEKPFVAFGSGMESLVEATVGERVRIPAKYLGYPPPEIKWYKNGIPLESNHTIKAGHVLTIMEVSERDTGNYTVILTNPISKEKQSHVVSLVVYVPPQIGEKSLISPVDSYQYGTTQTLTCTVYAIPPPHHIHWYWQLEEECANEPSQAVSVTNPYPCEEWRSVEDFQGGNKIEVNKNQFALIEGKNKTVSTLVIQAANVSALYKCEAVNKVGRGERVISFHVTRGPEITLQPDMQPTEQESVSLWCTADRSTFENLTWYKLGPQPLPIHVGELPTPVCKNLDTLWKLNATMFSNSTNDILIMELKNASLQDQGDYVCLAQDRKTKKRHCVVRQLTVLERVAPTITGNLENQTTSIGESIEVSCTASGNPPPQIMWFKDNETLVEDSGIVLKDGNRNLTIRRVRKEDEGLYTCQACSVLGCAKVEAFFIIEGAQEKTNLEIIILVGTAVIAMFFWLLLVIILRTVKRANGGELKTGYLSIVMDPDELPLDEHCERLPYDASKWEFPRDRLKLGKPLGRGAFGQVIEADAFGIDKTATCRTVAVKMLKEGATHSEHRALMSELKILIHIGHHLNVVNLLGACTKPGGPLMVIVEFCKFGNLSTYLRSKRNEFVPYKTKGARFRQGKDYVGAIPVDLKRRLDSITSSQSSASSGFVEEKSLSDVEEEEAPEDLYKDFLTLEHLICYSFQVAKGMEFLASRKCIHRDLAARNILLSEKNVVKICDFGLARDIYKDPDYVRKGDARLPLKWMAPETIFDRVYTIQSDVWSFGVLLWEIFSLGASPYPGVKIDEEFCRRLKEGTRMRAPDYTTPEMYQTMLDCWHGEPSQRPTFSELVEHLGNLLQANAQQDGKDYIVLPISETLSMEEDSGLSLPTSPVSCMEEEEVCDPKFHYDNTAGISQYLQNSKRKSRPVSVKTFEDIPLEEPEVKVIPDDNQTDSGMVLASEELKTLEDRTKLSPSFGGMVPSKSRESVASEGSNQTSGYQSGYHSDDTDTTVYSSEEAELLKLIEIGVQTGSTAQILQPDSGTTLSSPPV

[3] = target: T2, PDGFRβ (Homo sapiens (Human), UniProt P09619); assay: PDGFRβ Kinase Assay (enzyme); assay type: biochemical; conditions: purified cytoplasmic domain PDGFR-b protein, 36 μM ATP
Method: Biochemical PDGFRβ kinase assays were performed in 96 well microtiter plates that were coated overnight with 75 μg of poly-Glu-Tyr (4:1) in 10 mM Phosphate Buffered Saline (PBS), pH 7.4. The coated plates were washed with 2 mls per well PBS+0.05% Tween-20 (PBS-T), blocked by incubation with PBS containing 1% BSA, then washed with 2 mls per well PBS-T prior to starting the reaction. Reactions were carried out in 100 μL reaction volumes containing 36 μM ATP in kinase buffer (50 mM Hepes buffer pH 7.4, 20 mM MgCl2, 0.1 mM MnCl2 and 0.2 mM Na3VO4). Test compounds were reconstituted in 100% DMSO and added to the reaction to give a final DMSO concentration of 5%. Reactions were initiated by the addition 20 ul per well of kinase buffer containing 200-300 ng purified cytoplasmic domain PDGFR-b protein (Millipore). Following a 60 minute incubation at 30° C., the reactions were washed 2 mls per well PBS-T. 100 μl of a monoclonal anti-phosphotyrosine antibody-peroxidase conjugate diluted 1:10,000 in PBS-T was added to the wells for 30 minutes. Following a 2 mls per well wash with PBS-Tween-20, 100 μl of 0-Phenylenediamine Dihydrochloride in phosphate-citrate buffer, containing urea hydrogen peroxide, was added to the wells for 7-10 minutes as a colorimetric substrate for the peroxidase. The reaction was terminated by the addition of 100 μl of 2.5N H2SO4 to each well and read using a microplate ELISA reader set at 492 nm. IC50 values for compound inhibition were calculated directly from graphs of optical density (arbitrary units) versus compound concentration following subtraction of blank values.
Target sequence in this assay (P09619 554-1106): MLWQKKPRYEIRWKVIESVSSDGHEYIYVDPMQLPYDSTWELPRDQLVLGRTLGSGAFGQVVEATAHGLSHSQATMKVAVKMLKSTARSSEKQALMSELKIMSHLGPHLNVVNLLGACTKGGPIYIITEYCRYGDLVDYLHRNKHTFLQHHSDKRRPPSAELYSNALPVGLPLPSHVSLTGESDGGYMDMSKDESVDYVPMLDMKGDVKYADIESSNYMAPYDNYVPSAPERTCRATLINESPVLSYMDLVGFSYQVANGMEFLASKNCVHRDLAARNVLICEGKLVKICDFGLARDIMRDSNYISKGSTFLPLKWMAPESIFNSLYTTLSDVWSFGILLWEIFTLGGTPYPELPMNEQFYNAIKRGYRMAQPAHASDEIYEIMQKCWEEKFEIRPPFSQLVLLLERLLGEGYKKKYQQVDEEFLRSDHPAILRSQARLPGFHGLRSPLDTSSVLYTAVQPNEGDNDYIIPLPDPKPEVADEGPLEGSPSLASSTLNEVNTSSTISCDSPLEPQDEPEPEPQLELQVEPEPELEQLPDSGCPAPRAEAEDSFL

[4] = target: T2, PDGFRβ; assay: PDGFRβ Cellular Assay; assay type: cell-based
Target sequence in this assay (P09619 33-1106, species assumed): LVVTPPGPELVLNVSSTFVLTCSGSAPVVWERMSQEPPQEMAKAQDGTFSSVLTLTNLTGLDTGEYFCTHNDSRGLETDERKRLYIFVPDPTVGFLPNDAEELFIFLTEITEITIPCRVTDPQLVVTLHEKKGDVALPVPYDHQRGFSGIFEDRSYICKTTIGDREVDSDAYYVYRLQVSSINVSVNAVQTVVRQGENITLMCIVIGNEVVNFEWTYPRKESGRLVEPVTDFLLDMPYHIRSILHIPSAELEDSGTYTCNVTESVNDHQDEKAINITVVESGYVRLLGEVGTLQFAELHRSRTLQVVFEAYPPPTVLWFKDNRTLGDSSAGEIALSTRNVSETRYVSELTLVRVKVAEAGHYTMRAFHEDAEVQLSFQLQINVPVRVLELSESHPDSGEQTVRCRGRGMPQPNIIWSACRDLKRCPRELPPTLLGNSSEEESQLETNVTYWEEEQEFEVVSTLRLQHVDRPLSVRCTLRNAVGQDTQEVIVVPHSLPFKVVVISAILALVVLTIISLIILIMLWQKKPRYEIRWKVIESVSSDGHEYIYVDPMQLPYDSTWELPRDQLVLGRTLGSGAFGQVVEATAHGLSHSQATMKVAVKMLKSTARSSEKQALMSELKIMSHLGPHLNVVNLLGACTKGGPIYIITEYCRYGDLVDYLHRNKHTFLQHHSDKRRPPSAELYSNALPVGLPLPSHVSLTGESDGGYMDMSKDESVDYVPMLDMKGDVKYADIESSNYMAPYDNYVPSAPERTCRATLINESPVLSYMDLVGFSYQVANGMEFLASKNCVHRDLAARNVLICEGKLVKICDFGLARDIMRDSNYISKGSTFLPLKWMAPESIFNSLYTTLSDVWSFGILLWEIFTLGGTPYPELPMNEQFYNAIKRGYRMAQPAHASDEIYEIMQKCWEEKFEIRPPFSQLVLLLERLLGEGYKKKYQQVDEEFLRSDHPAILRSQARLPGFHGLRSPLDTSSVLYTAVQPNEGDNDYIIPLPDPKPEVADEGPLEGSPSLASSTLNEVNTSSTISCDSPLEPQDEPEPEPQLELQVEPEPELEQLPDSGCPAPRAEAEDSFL

Row | SMILES | IC50 [1] [nM] | IC50 [2] [nM] | IC50 [3] [nM] | IC50 [4] [nM]
1 | O=C(Nc1cccc(C(F)(F)F)c1)c1cccc(N2CCc3c(cnc4ccccc34)C2)c1 [Example 7, 3-(1,4-dihydrobenzo[c]-2,7-naphthyridin-3(2H)-yl)-N-[3-(trifluoromethyl)phenyl]benzamide] | 10 | 46 | 14 | 103
2 | COc1cc2ncc3c(c2cc1OC)CCN(c1cccc(C(=O)Nc2cccc(C(C)C)c2)c1)C3 [Example 10, 3-(8,9-dimethoxy-1,4-dihydrobenzo[c]-2,7-naphthyridin-3(2H)-yl)-N-(3-isopropylphenyl)benzamide] | 7 | – | 11 | –
3 | COc1cc2ncc3c(c2cc1OC)CCN(c1cccc(C(=O)Nc2ccc(C(C)C)cc2)c1)C3 [Example 11, 3-(8,9-dimethoxy-1,4-dihydrobenzo[c]-2,7-naphthyridin-3(2H)-yl)-N-(4-isopropylphenyl)benzamide] | 9 | 20 | 18 | –
4 | CCc1cccc(NC(=O)c2cccc(N3CCc4c(cnc5ccsc45)C3)c2)c1 [Example 14, 3-(8,9-dihydrothieno[3,2-c]-2,7-naphthyridin-7(6H)-yl)-N-(3-ethylphenyl)benzamide] | 5 | 12 | 7 | –

Further lines, results first:

Row | IC50 [1] [nM] | IC50 [2] [nM] | IC50 [3] [nM] | IC50 [4] [nM] | SMILES
5 | 7 | 23 | 16 | – | Cc1cccc(NC(=O)c2cccc(N3CCc4c(cnc5ccccc45)C3)c2)c1 [Example 3, 3-(1,4-dihydrobenzo[c]-2,7-naphthyridin-3(2H)-yl)-N-(3-methylphenyl)benzamide]
6 | 6 | 19 | 10 | 58 | CCc1cccc(NC(=O)c2cccc(N3CCc4c(cnc5ccccc45)C3)c2)c1 [Example 4, 3-(1,4-dihydrobenzo[c]-2,7-naphthyridin-3(2H)-yl)-N-(3-ethylphenyl)benzamide]
7 | 7 | 30 | 15 | 200 | CC(C)c1cccc(NC(=O)c2cccc(N3CCc4c(cnc5ccccc45)C3)c2)c1 [Example 5, 3-(1,4-dihydrobenzo[c]-2,7-naphthyridin-3(2H)-yl)-N-(3-isopropylphenyl)benzamide]
8 | 8 | 71 | 16 | – | CC(C)c1ccc(NC(=O)c2cccc(N3CCc4c(cnc5ccccc45)C3)c2)cc1 [Example 6, 3-(1,4-dihydrobenzo[c]-2,7-naphthyridin-3(2H)-yl)-N-(4-isopropylphenyl)benzamide]
